From PMC3692431, “Anticonvulsant Activity of B2, an Adenosine Analog, on Chemical Convulsant-Induced Seizures” (PLoS ONE, 2013) come the findings set out here.

Test [1] concerns strychnine-induced seizures. Nature of the test: Strychnine-induced seizures in mice. The note with it: 80 mg/kg, positive control; strychnine 1.5 mg/kg i.p. The format is in vivo. How it is done:
(§1) KA was dissolved in saline and the pH was adjusted to neutrality. The final concentration of KA was 0.7 µg/µl, and the convulsant dose was 1 µl (i.c.v.). […] The selective adenosine receptor antagonist DPCPX or SCH58261 was administered (i.p.) 5 min before administration of B2 or vehicle.
(§2) Mice were injected with B2 (1.25, 5, 20 mg/kg), carbamazepine (80 mg/kg) or vehicle 20 min before administration of strychnine (1.5 mg/kg) or 4-AP (13 mg/kg). […] The time of latency to seizure onset and mortality rate were recorded.

The next test concerns 4-AP-induced seizures. Nature of the test: 4-AP-induced seizures in mice. Conditions: 80 mg/kg, positive control, 4-AP 13 mg/kg. In kind it is in vivo. The protocol:
as §1, §2

In test [2] the test system is PTZ-induced seizures. Nature of the test: PTZ-induced seizures with adenosine receptor antagonist pretreatment. In kind it is in vivo, mice. Conditions: PTZ 85 mg/kg. The protocol:
as §1
Twenty min later, mice were admdinistered with PTZ (85 mg/kg).

The next test concerns KA-induced seizures. Nature of the test: KA-induced seizures in mice. In kind it is in vivo. Conditions: 10 mg/kg, positive control, KA 0.7 µg i.c.v. How it is done:
as §1
The left lateral ventricle (0.6 mm posterior, 1.9 mm lateral, and 2.1 mm ventral to bregma) was cannulated as described. After a 7-day recovery period, mice were injected with either B2 (1.25, 5, 20 mg/kg) or vehicle. Twenty minutes later, an intracerebroventricular injection of KA (0.7 µg/µl, 1 µl) was administered without anesthesia. The animals were then observed for a minimum of 60 min. Seizure severity was determined according to the scoring system described by Racine. At the end of the experiment, cannulae placement was verified.

In test [3] the test system is PTZ-induced seizures. The test can be described thus: PTZ-induced seizures in mice. The format is in vivo. The note with it: 10 mg/kg i.p.; PTZ 85 mg/kg s.c.; P<0.001. How it is done: The latency of seizure onset, number of seizures, and mortality rate was recorded for the picrotoxin-injected mice. For the PTZ-injected mice, we recorded the latency of seizure onset, number of seizures, and presence of clonic seizures.

`NC(=O)N1c2ccccc2C=Cc2ccccc21` [Carbamazepine, carbamazepine, reference compound]: in test [1], the “protection against strychnine-induced seizures” value was “complete protection”. The “effect on latency to seizure onset” value with 4-AP-induced seizures (P<0.001) is reported as “significantly prolonged”. In the test on 4-AP-induced seizures (P<0.05), the “effect on mortality rate” value was “reduced the mortality rate”.

Regarding `CCCn1c(=O)c2[nH]c(C3CCCC3)nc2n(CCC)c1=O` [DPCPX, 8-Cyclopentyl-1,3-dipropylxanthine], the “effect on onset time of seizure, antagonist alone” value in the test on PTZ-induced seizures [2] (DPCPX 0.3125–1.25 mg/kg i.p. alone) was “did not affect”. For the same compound, the “effect on the delaying effect of B2 on onset times of seizure” value in the test on PTZ-induced seizures [2] (DPCPX pretreatment 5 min before B2 5 mg/kg, P<0.05) is recorded as “significantly blocked”.

As to `CN1C(=O)CN=C(c2ccccc2)c2cc(Cl)ccc21` [Diazepam, diazepam, reference compound], the “protection against KA-induced seizures” value with KA-induced seizures was “significant protection”. The “protection against PTZ-induced seizures” value in the test with PTZ-induced seizures [3] is given as “completely protected”.

Regarding `Nc1nc2c(cnn2CCc2ccccc2)c2nc(-c3ccco3)nn12` [SCH58261, 5-amino-7-(β-phenylethyl)-2-(2-furyl)-pyrazolo-[4,3-e]-1,2,4-triazolo[1,5-c]-pyrimidine], in the test on PTZ-induced seizures [2] (SCH58261 0.08–1.25 mg/kg i.p. alone), the “effect on onset time of seizure, antagonist alone” value is “did not affect”. Moreover, in the test with PTZ-induced seizures [2] (SCH58261 pretreatment 5 min before B2 5 mg/kg), the “effect on the delaying effect of B2 on seizure onset time” value is recorded as “did not affect the delaying effect”.
